Measurements reported in publication PMC5723705, “Identification of an antibody‐based immunoassay for measuring direct target binding of RIPK1 inhibitors in cells and tissues” (Pharmacology Research & Perspectives, 2017).

Experiments:
[1] = target: T1, RIPK1 (Receptor-interacting serine/threonine-protein kinase 1) (Homo sapiens, UniProt Q13546); assay: TEAR1 target engagement immunoassay (FREE-RIPK1/TOTAL-RIPK1) in HT29 cells; assay type: cell-based
T1 sequence (Q13546 1-671): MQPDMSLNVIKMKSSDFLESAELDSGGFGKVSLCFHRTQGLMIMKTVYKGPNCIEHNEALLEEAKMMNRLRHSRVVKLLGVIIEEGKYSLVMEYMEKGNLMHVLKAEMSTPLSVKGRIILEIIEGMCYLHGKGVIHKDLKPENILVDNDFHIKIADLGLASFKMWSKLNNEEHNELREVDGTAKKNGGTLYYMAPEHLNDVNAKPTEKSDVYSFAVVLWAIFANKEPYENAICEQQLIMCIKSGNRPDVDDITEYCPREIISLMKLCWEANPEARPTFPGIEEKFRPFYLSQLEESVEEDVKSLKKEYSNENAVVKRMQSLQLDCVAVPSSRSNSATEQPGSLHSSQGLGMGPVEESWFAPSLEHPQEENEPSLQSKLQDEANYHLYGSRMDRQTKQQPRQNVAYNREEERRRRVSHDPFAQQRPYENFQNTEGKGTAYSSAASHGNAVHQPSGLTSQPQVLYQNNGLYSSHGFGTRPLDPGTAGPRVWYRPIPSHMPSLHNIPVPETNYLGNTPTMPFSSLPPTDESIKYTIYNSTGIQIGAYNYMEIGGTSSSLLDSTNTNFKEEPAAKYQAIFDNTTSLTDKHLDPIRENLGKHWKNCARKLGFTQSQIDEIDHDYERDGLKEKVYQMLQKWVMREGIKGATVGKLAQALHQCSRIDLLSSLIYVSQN

[2] = system: RIPK1 (Receptor-interacting serine/threonine-protein kinase 1); assay: TEAR1 target engagement immunoassay in monkey whole blood and tissues after IV dosing; parameters: species or system Macaca fascicularis

IC50 [1]: 500 pM
IC50 [2]: 3.1 ng/mL
Substance: GSK3011253 [GSK'253]
